Results as given in patent publication US20070135378A1, “Method for the direct synthesis of oligorhamnosides, composition comprising oligorhamnosides and use thereof as a medicament” (priority 2003, published 2007).

Tests used:
[1] = system: keratinocytes; assay: Toxicity test: viability of keratinocytes; type: cell-based; settings: for % viability: vs control 100%
From the text: 1) Principles of Cellular Viability Measurement Techniques • MTT [3-(4,5-[…])-2,5-diphenyl tetrazolium bromide] reduction technique (sold by Sigma).
This technique corresponds to a […] test allowing quantification of living, metabolically active cells in a non-radioactive manner. MTT is a cationic molecule which is bound to the membranes of mitochondria in a potential-dependant fashion. On the level of the mitochondria, MTT will be reduced to formazan blue by mitochondrial dehydrogenase. The living cells are thus colored blue, in contrast with the dead cells which remain transparent. The measure of viability is then carried out by measurement of the optical density using an automatic reader.
This method of analysis, however, seems to be better adapted for adherent cells (keratinocyte-type) than for non-adherent cells (monocytes and dendritic cells). Another study was thus envisaged to conclude on the cytotoxicity of the oligorhamnosides with respect to the differentiated cells analyzed, namely flow cytometry in the presence of propidium iodide. • XTT tetrazolium salt reduction technique.
This is a technique allowing quantification of cellular proliferation and of the number of living (metabolically active) cells, without the incorporation of radioactive isotopes. XTT, yellow in color, is a cationic molecule which is bound to the membranes of mitochondria in a potential-dependant fashion, as does MTT.
On the level of the mitochondria, XTT will be reduced to formazan (orange) by mitochondrial tetrazolium reductase. […] Indeed, the reduction product is soluble within the cell. The method is thus faster. Living cells, in the absence and presence of a treatment become colored, in contrast with dead cells which remain colorless. The level of formazan product is detected with the spectrophotometer at a wavelength of 450 nm and is directly proportional to the number of metabolically active cells.
2) Toxicity Tests • Keratinocytes were isolated and placed in culture from human skin biopsies. Measurements of optical density (absorbance) of the 4 wells treated with the same product concentration were averaged. This average was compared with the average of the measurements obtained for the 4 control wells (Student's t-test—comparison of means—significant difference at 95% if p<0.05 and 99% if p<0.01).
The viabilities of the treated cells are expressed as a percentage compared to the control (untreated cells) of 100% (OD treated/OD control×100).

[2] = system: dendritic cells; assay: Dendritic cell maturation (CD86 B7.2 expression, allergenic effect); type: cell-based, human; settings: control substances, concentration not given
Method: Three groups of cells are analyzed: 1) those which have not been exposed to oligorhamnosides or the selected activation signals, which will be used as negative controls, 2) those which were incubated for 24 hours with the activation signals, which will be used as positive controls, and 3) those which had been in contact with the oligorhamnosides for 24 hours. The culture medium used is a classical medium of type RPMI 1640 (Bioproducts), supplemented with 10% FCS, glutamine (2 mM) and the antibiotics penicillin and streptomycin (Bioproducts). The rinse liquid used is a PI buffer (Bioproducts). The cellular activator used is INFγ (SIGMA). The allergenic effect is reflected by the maturation of the dendritic cells and the expression of the CD86 B7.2 receptor. The more this receptor is expressed, the higher the proportion of mature cells and the more the rhamnosylated derivative studied has an allergenic effect.

[3] = system: dendritic cells; type: cell-based
Method: Viability is determined from the mortality translated directly by the proportion of PI signal.

[4] = system: 6-ketoPGF1α released by NHK; assay: Assay of prostaglandin 6-ketoPGF1α after stimulation of keratinocytes (ELISA); type: cell-based, human; settings: for inhibition at 1 µM: Homo sapiens, Keratinocyte, 2 h
Method: Prostaglandin I2 (PGI2) is an unstable metabolite of the arachidonic acid degradation pathway. Like prostaglandin E2, it is a mediator of inflammation with vasodilatory properties. The instability of PGI2 lies in its rapid conversion (non-enzymatic hydration) to 6-keto prostaglandin F1α (6-ketoPG1α). It is thus this prostaglandin which is measured as a marker for PGI2 synthesis. PMA (phorbol-12-myristate-13-acetate) is an activator of protein kinase C. It is a non-physiological activator which mimics the effect of cytokines, including IL-1β on NHK, and encourages the cell to release a lipid molecule, the prostaglandin 6-ketoPGF1α. This prostaglandin is assayed by means of an ELISA. The two activators IL-1β and PMA are used. Indomethacin, an aspirin-type analgesic, is an anti-inflammatory drug (NSAID) which […]. It is used to inhibit the release of 6-ketoPGF1α. Two experiments were carried out. The first consists of pretreating the NHK with oligorhamnosides for 4 hours and then monitoring the stimulation for 2 hours in the presence of oligorhamnosides. A second experiment was carried out in which the pretreatment with oligorhamnosides was extended to 12 hours.

[5] = system: PGE2 released by human neutrophilic leukocytes; assay: Assay of PGE2 released by human neutrophilic leukocytes; type: cell-based
Method: (§1) Neutrophils are isolated from normal human blood and purified by an original method. They are then activated by a stimulation buffer which causes the release of two types of lipid molecules, arachidonic acid derivatives, arising from the cyclooxygenase and lipoxygenase pathways, namely the leukotriene LTB4 and the prostaglandin PGE2. This stimulation buffer contains in particular Ca^2+ and Mg^2+ ions. These assays are carried out by means of an ELISA-type commercial assay kit. The results represent the means of the values assayed in two supernatants of cells stimulated during the same experiment.

[6] = system: endothelial cells; assay: Cytotoxicity test (MTT) on endothelial cell lines; type: cell-based
Method: • Endothelial cells were placed in culture, immortalized and stabilized in their phenotype. The cell lines studied were appendix endothelial cells, brain microvascular endothelial cells, mesenteric lymphatic ganglia endothelial cells, peripheral lymphatic ganglia endothelial cells and skin microvascular endothelial cells.
The cytotoxicity test was carried out by means of a biochemical test on the transformation of a tetrazolium salt, MTT. […] Viability is indeed always greater than 85%, and this is true for all of the cells lines studied.

[7] = system: LTB4 released by human neutrophilic leukocytes; assay: Assay of LTB4 released by human neutrophilic leukocytes; type: cell-based; settings: stimulation buffer, 0.1 μM
Method: as §1, with “kit.” for “kit. The results represent the means of the values assayed in two supernatants of cells stimulated during the same experiment.”
The results represent the means of the values assayed in two supernatants of cells stimulated during the same experiment.

[8] = IL-1β stimulation 2 hours 1 ng/ml, 1 μM
[9] = PMA stimulation 2 hours 10 ng/ml, 1 μM

C[C@H](O)[C@H](O)[C@@H](O)[C@@H](O)C=O [Rhamnose, rhamnose]
% viability ([1]; 0.001 mg/ml): 95% | % viability ([1]; 0.01 mg/ml): 100% | % viability ([1]; 0.1 mg/ml): 98% | % viability ([1]; 1 mg/ml): 104% | cytotoxicity (in words) ([1]; even for the highest concentrations): does not exhibit cytotoxicity

C[S+](C)[O-] [DMSO control]
CD86 B7.2 (Maturation) [2]: 0.17% | Viability (propidium iodide, PI) [3]: 1.27%

COc1ccc2c(c1)c(CC(=O)O)c(C)n2C(=O)c1ccc(Cl)cc1 [indomethacin]
inhibition at 1 µM [4, 8]: 17% | inhibition at 1 µM [4, 9]: 37% | Mean 6-ketoPGF1α [4, 8]: 22.6 ± 3.4 pg/ml/μg proteins | Mean 6-ketoPGF1α [4, 9]: 20.9 ± 4.9 pg/ml/μg proteins | Mean 6-ketoPGF1α ([4]; Table 7 experiment, IL-1β stimulation 2 hours 1 ng/ml, concentration not given): 22.6 ± 3.4 pg/ml/μg proteins | PGE2 released, Without stimulation ([5]; 1 μM): 4.5 ± 0 pg/mL | inhibition at 1 µM ([5]; Homo sapiens, Leukocyte, stimulation buffer): 69% | PGE2 released, Stimulation ([5]; stimulation buffer, 1 μM): 6.8 ± 1 pg/mL

CCCCCOC1O[C@@H](C)[C@H](O)[C@@H](O)[C@H]1O (stereo partly shown) [pentyl-rhamnoside]
Viability ([6]; all of the cell lines studied): greater than 85% | toxicity (in words) ([6]; endothelial cell lines): no toxicity

CC(Cc1ccc(O)c(O)c1)C(C)Cc1ccc(O)c(O)c1 (stereo not shown) [NDGA, nordihydroguaiaretic acid]
% inhibition (LTB4 released) [7]: 73% | LTB4 released, Stimulation [7]: 684 ± 185 pg/mL
